US8889902B2, “Acetylsalicylic acid salts” (priority 2009, dated 2014)
Several values for one entry are separate records, joined by “and”; a condition that tells them apart may be missing. Equal entries are not always repeated. Marks after values point to notes of the source that are not given here.

Columns and labels:
[1] = system: hyperthermia induced by intramuscular injection of pyrogenal; experiment: Preventive antipyretic activity, pyrogenal hyperthermia; assay type: in vivo, Wistar rats
Description: Experiments were conducted on 48 Wistar rats with body mass 165-182 g by intramuscular injection of pyrogenal (Gamalei State Research Institution, Moscow, Russia) in 100 μg dose (Shwarz G Y, Syubaev R D, Vedomosti NCEG lekarstvennyh sredstv MZ RF 2000; 1:44-50 (Rus). Test substances were given p.o. one hour before the pyrogenal injection. Rectal temperature was measured by electric thermometer TERMO before injection of pyrogenal (baseline) and for 3 hours after injection. The antipyretic activity was evaluated by the reduction of hyperthermic reaction 2 hours after injection of pyrogenal that correlated well with the published data (10) about the peak of reaction (Table 6). Ambient temperature was kept at 20-21° C.

carrageneen paw oedema = experiment: Acute inflammatory oedema model (carrageneen test); assay type: in vivo, rats; settings: 4 h
Description: Experiments were conducted using carrageneen test (Winter C et al, Proc Soc Exptl Biol and Med 1962; III(3):544-547. Wei Jia et al, Journal of Ethnopharmacology 2003(89):139-141; Sutharson Lingadurai et al, African Journal of traditional, complementary and alternative medicines, 2007, 4(4):411-416) on 42 rats with body mass of 226-274 g. Single injection of carrageneen (Sigma) solution (1%) in saline (0.1 ml) was introduced in rat hind leg paw. Test substances were introduced p.o. (through catheter into rat stomach) 30 min. after the injection of carrageneen. The volume of paw was measured by oncometer at baseline and 4 hours after the injection of carrageneen.
The percentage of prevention (inhibition of oedema) was calculated according to formula: P(%)=(1−Vo/Vc)×100, where P—Prevention in % (inhibition of oedema) Vo—difference between the paw volume at baseline and at experimental conditions; Vc—analogical difference in control group.

[2] = system: adjuvant arthritis induced by Freund's adjuvant; experiment: Adjuvant arthritis: paw volume and ankle joint; assay type: in vivo, Wistar rats; settings: for Prevention %, paw volume Day 14 / Prevention %, paw volume Day 28: vs AdA
Description: Our experiments were scheduled to test the influence of MASA on the progress of adjuvant arthritis in comparison with MD and ASA. […] Each standard cage housed 7 rats with unlimited access to drinking water and granulated standard feed. […] All efforts were made to minimize animal suffering and to reduce the number of animals used. A modified standard procedure for inducting and evaluating the progress of chronic adjuvant arthritis was used (Bellavite P, Ortolani R, Conforti A, Immunology and Homeopathy. 3. Experimental Studies on Animal Models, Advance Access Publication 2.05, 2006, 171-186). […] The solutions of test substances were prepared ex tempore. […] Test solutions were introduced to animal p.o. by catheter into the stomach. […] The effects of test substances were evaluated using the following criteria: The oedema, i.e. the volume of hind paw was measured by oncometer. The percentage of prevention (inhibition of oedema) was calculated according to formula: P(%)=(Vc−Vt)/Vc×100, where Vc—paw volume in control group Vt—paw volume in test group P—Prevention in % (inhibition of oedema).

platelet aggregation = experiment: Platelet aggregation in vitro, whole blood impedance aggregometry (Multiplate); assay type: cell-based, healthy donor
Description: Platelet aggregation was studied using whole blood impedance aggregometry on Multiplate (Multiple Platelet Function Analyzer, Dynabyte Medical, Germany) (Toth O et al, Thromb Haemost 2006; 96:781-788. […] Blood samples for in vitro experiment were collected from healthy donor B. […] In the ex vivo experiment blood was collected into plastic tubes covered with hirudin (Dynabyte Medical, Germany) from narcotized rats that were treated for 3 previous days with test substances p.o. The measurements were performed according to modified Dynabyte Medical protocol. […] After 5 min incubation and stirring at 37° C., measurements were initiated by adding of the appropriate agonist solution (sourced from Dynabyte Medical, Germany): 1) adenosine diphosphate (ADP)-ADP-Test. ADP stimulates platelet activation by the ADP receptors (P2Y 12 and other). […] 3) ADP HS test (prostaglandin E1 in combination with ADP). […] Aggregation curves were recorded for 6 min. and analyzed using Dynabyte Medical software. We calculated the following parameters of platelet aggregation: […] It is affected by the total height of the aggregation curve as well as by its slope and is best suited to express the overall platelet activity.

rat ear skin temperature [3] = experiment: Ear skin temperature rise caused by NA, s.c. administration; assay type: in vivo, Wistar rats; settings: 45 mg/kg s.c. alone
Description: (§1) Male Wistar rats (280-330 g) were used. Animals were held in groups of 6 in climatized rooms at 22±1° C., relative humidity 60±5%, and 12/12-hour light/dark cycle with free access to drinking water and feed (R3—Lactamin AB, Sweden). For registration of changes in skin temperature of intact rats contactless temperature recording method was used (Papaliodis D et al, Br J Pharmacol 2008; 153:1382-1387). Temperature measurements were performed with a hand-held infrared thermometer (Model Proscan 510, TFA-Dostman). Animals were habituated to handling and to the infrared probe for 3 days before use. Temperature readings from the dorsal side of each ear were recorded without anaesthesia at beginning and during experiment. The ear temperature was measured every 5 min. for a period of up to 60 min. The animals were returned to their cages between measurements. NA, MD and MASA were dissolved in saline and pH was corrected immediately before usage. LA (MK 0524, Cayman Chemicals) was first dissolved in DMSO and then freshly diluted with 0.9% NaCl, on each day of the experiment. The rate of NA and LA combination was based on Summary of Product Characteristics for Tredaptive™ (nicotinic acid/laropiprant) 1000 mg/20 mg modified-release tablets.
The influence of LA, MD or MASA alone on skin temperature was checked. Each investigated compound was introduced s.c. simultaneously with NA as LA+NA [0] or 30 min in advance to NA as LA+NA [30].

rat ear skin temperature [4] = experiment: Ear skin temperature rise caused by NA, p.o. administration; assay type: in vivo, Wistar rats; settings: MASA 150 mg/kg p.o. alone
Description: as §1
9.2.3. Investigation of the Effect of MASA/NA and MD/NA Combination on Skin Temperature at Simultaneous or 45 Min Advance p.o. Administration

[5] = 100 mg/kg p.o. 30 min after carrageneen
[6] = 75 mg/kg p.o. 30 min after carrageneen
[7] = 150 mg/kg p.o. 30 min after carrageneen
[8] = 300 mg/kg p.o. 30 min after carrageneen

## CC(=O)Oc1ccccc1C(=O)O [ASA, acetylsalicylic acid]
[1]; 50 mg/kg p.o. 1 h before pyrogenal
  Rectal temperature 120 minutes after injection: 35.6 ± 0.19***^$ ° C.
Carrageneen paw oedema; [5]
  Index, % (inhibition of oedema): 66%
  Volume of paw after injection of carrageneen: 1.97 ± 0.10 mL
[2]; 10 mg/kg daily p.o.
  Dimensions of ankle joint on Day 14: 7.2 ± 0.12 mm
  Dimensions of ankle joint on Day 28: 6.8 ± 0.14 mm
  Paw volume on Day 14: 2.53 ± 0.10 mL
  Paw volume on Day 28: 2.08 ± 0.12 mL
  Prevention %, paw volume Day 14: −7%
  Prevention %, paw volume Day 28: 7%
[2]; 100 mg/kg daily p.o.
  Dimensions of ankle joint on Day 14: 6.9 ± 0.15 mm
  Dimensions of ankle joint on Day 28: 7.1 ± 0.16 mm
  Paw volume on Day 14: 2.35 ± 0.14 mL
  Paw volume on Day 28: 1.52 ± 0.07 mL
  Prevention %, paw volume Day 14: 3%
  Prevention %, paw volume Day 28: 32%
Platelet aggregation; AA induced, 10^−4
  AUC: 450 ± 24.8^2#@ AU*min and 450 ± 24.8^3a@ AU*min
  Amax: 103.1 ± 5.9^2#@ AU and 103.1 ± 5.9^2a@ AU
Platelet aggregation; ADP induced, 10^−4
  AUC: 883 ± 50.3 AU*min
  Amax: 151.7 ± 9.3 AU
Platelet aggregation; PGE1 + ADP induced, 10^−4
  AUC: 961 ± 35.0 AU*min
  Amax: 162.5 ± 8.7 AU

## CC(=O)Oc1ccccc1C(=O)[O-].C[N+](C)(C)NCCC(=O)O [MASA, 3-(trimethylammonioamino)propanoate Acetylsalicylic Acid Addition Salt]
[1]; 75 mg/kg p.o. 1 h before pyrogenal
  Rectal temperature 120 minutes after injection: 36.3 ± 0.20 °C
[1]; 150 mg/kg p.o. 1 h before pyrogenal
  Rectal temperature 120 minutes after injection: 36 ± 0.21 °C
[1]; 300 mg/kg p.o. 1 h before pyrogenal
  Rectal temperature 120 minutes after injection: 35.8 ± 0.16***^$ ° C.
Carrageneen paw oedema; [6]
  Index, % (inhibition of oedema): 18%
  Volume of paw after injection of carrageneen: 2.51 ± 0.11 mL
Carrageneen paw oedema; [7]
  Index, % (inhibition of oedema): 93%
  Volume of paw after injection of carrageneen: 1.54 ± 0.15***^$& ml
Carrageneen paw oedema; [8]
  Index, % (inhibition of oedema): 91%
  Volume of paw after injection of carrageneen: 1.79 ± 0.15 mL
[2]; 25 mg/kg daily p.o.
  Dimensions of ankle joint on Day 14: 7.0 ± 0.14 mm
  Dimensions of ankle joint on Day 28: 6.7 ± 0.15 mm
  Paw volume on Day 14: 2.20 ± 0.21 mL
  Paw volume on Day 28: 1.32 ± 0.12^#&&$ ml
  Prevention %, paw volume Day 14: 9%
  Prevention %, paw volume Day 28: 41%
[2]; 100 mg/kg daily p.o.
  Dimensions of ankle joint on Day 14: 7.0 ± 0.13 mm
  Dimensions of ankle joint on Day 28: 6.6 ± 0.16^#@$ mm
  Paw volume on Day 14: 2.07 ± 0.17^& ml
  Paw volume on Day 28: 1.22 ± 0.08^#&&&@$ ml
  Prevention %, paw volume Day 14: 15%
  Prevention %, paw volume Day 28: 45%
[2]; 200 mg/kg daily p.o.
  Dimensions of ankle joint on Day 14: 6.8 ± 0.10^#& mm
  Dimensions of ankle joint on Day 28: 6.9 ± 0.11 mm
  Paw volume on Day 14: 2.13 ± 0.11^& ml
  Paw volume on Day 28: 1.7 ± 0.09^#&@ ml
  Prevention %, paw volume Day 14: 12%
  Prevention %, paw volume Day 28: 24%
Platelet aggregation; AA induced, 10^−4
  AUC: 298 ± 25.3^3#&&$ AU*min and 298 ± 25.3^3aa& AU*min
  Amax: 66.1 ± 6.8^3#&&$ AU and 66.1 ± 6.8^3aa& AU
Platelet aggregation; AA induced, 10^−5
  AUC: 832 ± 54.1^1 AU*min
  Amax: 148.4 ± 5.7^1 AU
Platelet aggregation; ADP induced, 10^−4
  AUC: 798 ± 38.9^1 AU*min
  Amax: 140.5 ± 7.2^1 AU
Platelet aggregation; ADP induced, 10^−5
  AUC: 828 ± 63.5 AU*min
  Amax: 153.5 ± 8.8 AU
Platelet aggregation; PGE1 + ADP induced, 10^−4
  AUC: 533 ± 20.3^3$&&& AU*min
  Amax: 87.7 ± 4.6^3$&&& AU
Platelet aggregation; PGE1 + ADP induced, 10^−5
  AUC: 595 ± 45.3^1 AU*min
  Amax: 99.3 ± 4.8^2 AU
Rat ear skin temperature [3]
  Maximum temperature: 29.2 ± 0.38^$$$ ° C.
Rat ear skin temperature [4]
  Temp. 15 min: 29.9 ± 0.33^$$ ° C.
  Temp. 30 min: 29.5 ± 0.35^$$$ ° C.
  Temp. 45 min: 29.6 ± 0.39^$$ ° C.
Rat ear skin temperature [4]; NA alone = 100
  Max incr. %: 6%
